In the NIST ThermoML archive (doi:10.1016/j.tca.2016.06.015):

Assay: molar heat capacity at constant pressure
Details: Liquid, Flow calorimetry

O [water]
3000 kPa
Details | molar heat capacity at constant pressure [J/K/mol]
305.9 K | 77.29
315.6 K | 72.96
325.4 K | 73.14
335.8 K | 76.56
345.8 K | 74.58
354 K | 78.01
366.2 K | 74.22
381.2 K | 77.65
394.4 K | 74.58
407.3 K | 76.2
419.9 K | 76.38
433.9 K | 76.02

CCCCCCCCCC [decane]
4000 kPa
Details | molar heat capacity at constant pressure [J/K/mol]
305.7 K | 293.1
316.2 K | 305.91
326.5 K | 304.48
335.3 K | 315.87
344 K | 324.4
354.1 K | 322.98
366.8 K | 327.25
377.6 K | 340.05
389.8 K | 335.78
401.5 K | 344.32
423.6 K | 361.4
432.6 K | 367.09
443.4 K | 372.78
453.9 K | 377.05
463.9 K | 389.85
475.4 K | 396.97
486.6 K | 419.73
496 K | 414.04
504.1 K | 432.54
516.7 K | 415.46
528.9 K | 424
539.4 K | 433.96
551.9 K | 453.88
564.4 K | 453.88
574.2 K | 470.95
584.4 K | 488.03
595.2 K | 507.95
603.1 K | 513.64
608.6 K | 486.6
614.1 K | 497.99
